Patent publication US9637457B2, “Process for the stereoselective preparation of a pyrazole-carboxamide” (Syngenta Participations AG, priority 2014, dated 2017)
Read-outs that look alike come from different tables or passages of the source.

Experiments:
[1] = tested on: fungi; conditions: racemic compound, described in WO 2010/063700; cited from earlier work
[2] = tested on: fungi; assay: fungicidal activity (general statement, no test described); conditions: enantiomer Ib compared with enantiomer Ia / racemate

SMILES	fungicidal activity [1]	fungicidal activity [2]
CON(C(=O)c1cn(C)nc1C(F)F)C(C)Cc1c(Cl)cc(Cl)cc1Cl (racemic) [3-(difluoromethyl)-N-methoxy-1-methyl-N-[1-methyl-2-(2,4,6-trichlorophenyl)ethyl]pyrazole-4-carboxamide]	excellent fungicidal activity	
CON(C(=O)c1cn(C)nc1C(F)F)[C@@H](C)Cc1c(Cl)cc(Cl)cc1Cl [Ib, 3-(difluoromethyl)-N-methoxy-1-methyl-N-[(1S)-1-methyl-2-(2,4,6-trichlorophenyl)ethyl]pyrazole-4-carboxamide]		more prominent fungicidal activity
